This is an account of results in patent publication US20210386665A1, “INHALATION POWDER MEDICINE, EVALUATION METHOD THEREOF, AND USE THEREOF” (MEIJO UNIVERSITY EDUCATIONAL FOUNDATION, priority 2018, published 2021).

This series in a line: Anti-hygroscopic and hygroscopic property by dynamic vapor sorption (DVS). The format is physicochemical. The note with it: raw powders; DVS 37° C., 50 to 95% RH. The protocol:
For each SFD preparation prepared in Example 1 and each raw powder (Leu, Man, Tre, FlNa) in compositions, using a Dynamic Vapor Sorption measuring instrument (DVS: Dynamic Vapor Sorption; DVS advantage, Surface Measurement Systems), anti-hygroscopic property and hygroscopic growth from inhalation to the respiratory tract and deep lungs in high humidity were evaluated.
By a DVS, the mass change of a sample filled on one side of the balance-type measuring unit due to the adsorption and desorption of water in a set temperature and humidity environment can be monitored on a second scale. Regarding the setting of conditions for moisture absorption growth evaluation, to reproduce the temperature and humidity environment changes until the powder fine particles reach the deep lungs, the environment before inhalation was set to “temperature: 37° C., relative humidity (RH): 50% (absolute humidity: […])” and the lung environment after inhalation was set to “temperature: 37° C., 95% RH (absolute humidity: 41.62 g/m^3)”.
As for `CC(C)C[C@H](N)C(=O)O` [Leu, L-leucine], the mass change rate result is “about 0.08%”.

For the compound `OC[C@H]1O[C@H](O[C@H]2O[C@H](CO)[C@@H](O)[C@H](O)[C@H]2O)[C@H](O)[C@@H](O)[C@@H]1O` [Tre, D-(+)-trehalose], the mass change rate is ~22%.

On to `OC[C@@H](O)[C@@H](O)[C@H](O)[C@H](O)CO` [Man, D-(−)-mannitol], for which the mass change rate is recorded as ~0.29%.
